Numbers after ± are expanded uncertainties.
Experiment: xn = mol fraction of the nth substance listed
Details: for surface tension liquid-gas: Drop volume; for viscosity / mass density: 100 kPa, Liquid; for viscosity: Concentric cylinders viscometry; for mass density: Vibrating tube method

CC1CCCCC1 [methylcyclohexane] + CC(C)CC(C)(C)C
Details | mass density [kg/m3] | surface tension liquid-gas [mN/m] | viscosity [mPa·s]
293.15 K, x1 = 0.0999 | – | 19.34 ± 0.24 | –
293.15 K, x1 = 0.1012 | 698.32 ± 0.19 | – | 0.532 ± 0.085
293.15 K, x1 = 0.1999 | – | 19.77 ± 0.24 | –
293.15 K, x1 = 0.2003 | 704.87 ± 0.18 | – | 0.546 ± 0.088
293.15 K, x1 = 0.2997 | – | 20.13 ± 0.24 | –
293.15 K, x1 = 0.3001 | 711.73 ± 0.18 | – | 0.562 ± 0.09
293.15 K, x1 = 0.4 | – | 20.54 ± 0.24 | –
293.15 K, x1 = 0.4019 | 719.01 ± 0.17 | – | 0.58 ± 0.093
293.15 K, x1 = 0.5 | – | 20.99 ± 0.24 | –
293.15 K, x1 = 0.5008 | 726.4 ± 0.17 | – | 0.599 ± 0.096
293.15 K, x1 = 0.6 | 734.15 ± 0.17 | 21.52 ± 0.24 | 0.62 ± 0.099
293.15 K, x1 = 0.6998 | 742.32 ± 0.16 | – | 0.644 ± 0.1
293.15 K, x1 = 0.7001 | – | 22.1 ± 0.24 | –
293.15 K, x1 = 0.7999 | – | 22.64 ± 0.24 | –
293.15 K, x1 = 0.8 | 750.91 ± 0.16 | – | 0.671 ± 0.11
293.15 K, x1 = 0.9 | 759.88 ± 0.16 | 23.29 ± 0.24 | 0.701 ± 0.11
293.15 K, x1 = 1 | 769.35 ± 0.15 | 23.87 ± 0.24 | 0.735 ± 0.12
298.15 K, x1 = 0.0999 | – | 18.75 ± 0.24 | –
298.15 K, x1 = 0.1012 | 694.22 ± 0.19 | – | 0.506 ± 0.081
298.15 K, x1 = 0.1999 | – | 19.1 ± 0.24 | –
298.15 K, x1 = 0.2003 | 700.73 ± 0.18 | – | 0.519 ± 0.083
298.15 K, x1 = 0.2997 | – | 19.44 ± 0.24 | –
298.15 K, x1 = 0.3001 | 707.58 ± 0.18 | – | 0.533 ± 0.085
298.15 K, x1 = 0.4 | – | 19.84 ± 0.24 | –
298.15 K, x1 = 0.4019 | 714.85 ± 0.17 | – | 0.549 ± 0.088
298.15 K, x1 = 0.5 | – | 20.2 ± 0.24 | –
298.15 K, x1 = 0.5008 | 722.23 ± 0.17 | – | 0.566 ± 0.091
298.15 K, x1 = 0.6 | 729.96 ± 0.17 | 20.69 ± 0.24 | 0.585 ± 0.094
298.15 K, x1 = 0.6998 | 738.11 ± 0.16 | – | 0.606 ± 0.097
298.15 K, x1 = 0.7001 | – | 21.26 ± 0.24 | –
298.15 K, x1 = 0.7999 | – | 21.81 ± 0.24 | –
298.15 K, x1 = 0.8 | 746.67 ± 0.16 | – | 0.631 ± 0.1
298.15 K, x1 = 0.9 | 755.61 ± 0.16 | 22.41 ± 0.24 | 0.66 ± 0.11
298.15 K, x1 = 1 | 765.05 ± 0.15 | 23.02 ± 0.24 | 0.692 ± 0.11
303.15 K, x1 = 0.0999 | – | 18.32 ± 0.24 | –
303.15 K, x1 = 0.1012 | 690.06 ± 0.19 | – | 0.482 ± 0.077
303.15 K, x1 = 0.1999 | – | 18.62 ± 0.23 | –
303.15 K, x1 = 0.2003 | 696.57 ± 0.18 | – | 0.494 ± 0.079
303.15 K, x1 = 0.2997 | – | 18.99 ± 0.23 | –
303.15 K, x1 = 0.3001 | 703.4 ± 0.18 | – | 0.507 ± 0.081
303.15 K, x1 = 0.4 | – | 19.38 ± 0.23 | –
303.15 K, x1 = 0.4019 | 710.66 ± 0.18 | – | 0.521 ± 0.084
303.15 K, x1 = 0.5 | – | 19.73 ± 0.23 | –
303.15 K, x1 = 0.5008 | 718.01 ± 0.17 | – | 0.537 ± 0.086
303.15 K, x1 = 0.6 | 725.72 ± 0.17 | 20.21 ± 0.24 | 0.554 ± 0.089
303.15 K, x1 = 0.6998 | 733.85 ± 0.16 | – | 0.573 ± 0.092
303.15 K, x1 = 0.7001 | – | 20.72 ± 0.24 | –
303.15 K, x1 = 0.7999 | – | 21.32 ± 0.24 | –
303.15 K, x1 = 0.8 | 742.38 ± 0.16 | – | 0.595 ± 0.095
303.15 K, x1 = 0.9 | 751.3 ± 0.16 | 21.92 ± 0.24 | 0.621 ± 0.1
303.15 K, x1 = 1 | 760.71 ± 0.15 | 22.55 ± 0.24 | 0.651 ± 0.1
308.15 K, x1 = 0.0999 | – | 17.84 ± 0.23 | –
308.15 K, x1 = 0.1012 | 685.89 ± 0.19 | – | 0.46 ± 0.074
308.15 K, x1 = 0.1999 | – | 18.12 ± 0.23 | –
308.15 K, x1 = 0.2003 | 692.38 ± 0.18 | – | 0.471 ± 0.076
308.15 K, x1 = 0.2997 | – | 18.43 ± 0.23 | –
308.15 K, x1 = 0.3001 | 699.2 ± 0.18 | – | 0.483 ± 0.077
308.15 K, x1 = 0.4 | – | 18.8 ± 0.23 | –
308.15 K, x1 = 0.4019 | 706.44 ± 0.18 | – | 0.496 ± 0.08
308.15 K, x1 = 0.5 | – | 19.19 ± 0.23 | –
308.15 K, x1 = 0.5008 | 713.78 ± 0.17 | – | 0.51 ± 0.082
308.15 K, x1 = 0.6 | 721.47 ± 0.17 | 19.64 ± 0.23 | 0.525 ± 0.084
308.15 K, x1 = 0.6998 | 729.57 ± 0.17 | – | 0.543 ± 0.087
308.15 K, x1 = 0.7001 | – | 20.23 ± 0.23 | –
308.15 K, x1 = 0.7999 | – | 20.75 ± 0.24 | –
308.15 K, x1 = 0.8 | 738.08 ± 0.16 | – | 0.564 ± 0.09
308.15 K, x1 = 0.9 | 746.98 ± 0.16 | 21.44 ± 0.24 | 0.587 ± 0.094
308.15 K, x1 = 1 | 756.37 ± 0.15 | 22.12 ± 0.24 | 0.615 ± 0.099
313.15 K, x1 = 0.1012 | 681.69 ± 0.19 | – | 0.44 ± 0.071
313.15 K, x1 = 0.2003 | 688.17 ± 0.19 | – | 0.45 ± 0.072
313.15 K, x1 = 0.3001 | 694.97 ± 0.18 | – | 0.461 ± 0.074
313.15 K, x1 = 0.4019 | 702.2 ± 0.18 | – | 0.473 ± 0.076
313.15 K, x1 = 0.5008 | 709.52 ± 0.17 | – | 0.486 ± 0.078
313.15 K, x1 = 0.6 | 717.19 ± 0.17 | – | 0.5 ± 0.08
313.15 K, x1 = 0.6998 | 725.27 ± 0.17 | – | 0.516 ± 0.083
313.15 K, x1 = 0.8 | 733.75 ± 0.16 | – | 0.535 ± 0.086
313.15 K, x1 = 0.9 | 742.63 ± 0.16 | – | 0.556 ± 0.089
313.15 K, x1 = 1 | 752 ± 0.16 | – | 0.58 ± 0.093
318.15 K, x1 = 0.1012 | 677.34 ± 0.19 | – | 0.422 ± 0.068
318.15 K, x1 = 0.2003 | 683.85 ± 0.19 | – | 0.432 ± 0.069
318.15 K, x1 = 0.3001 | 690.64 ± 0.18 | – | 0.443 ± 0.071
318.15 K, x1 = 0.4019 | 697.75 ± 0.18 | – | 0.453 ± 0.073
318.15 K, x1 = 0.5008 | 705.13 ± 0.17 | – | 0.465 ± 0.075
318.15 K, x1 = 0.6 | 712.85 ± 0.17 | – | 0.478 ± 0.077
318.15 K, x1 = 0.6998 | 720.93 ± 0.17 | – | 0.493 ± 0.079
318.15 K, x1 = 0.8 | 729.36 ± 0.16 | – | 0.509 ± 0.082
318.15 K, x1 = 0.9 | 738.24 ± 0.16 | – | 0.528 ± 0.085
318.15 K, x1 = 1 | 747.58 ± 0.16 | – | 0.549 ± 0.088
323.15 K, x1 = 0.1012 | 673.08 ± 0.19 | – | 0.406 ± 0.065
323.15 K, x1 = 0.2003 | 679.58 ± 0.19 | – | 0.415 ± 0.067
323.15 K, x1 = 0.3001 | 686.35 ± 0.18 | – | 0.426 ± 0.068
323.15 K, x1 = 0.4019 | 693.44 ± 0.18 | – | 0.435 ± 0.07
323.15 K, x1 = 0.5008 | 700.81 ± 0.18 | – | 0.446 ± 0.072
323.15 K, x1 = 0.6 | 708.52 ± 0.17 | – | 0.458 ± 0.073
323.15 K, x1 = 0.6998 | 716.59 ± 0.17 | – | 0.471 ± 0.076
323.15 K, x1 = 0.8 | 725.08 ± 0.17 | – | 0.486 ± 0.078
323.15 K, x1 = 0.9 | 733.86 ± 0.16 | – | 0.503 ± 0.081
323.15 K, x1 = 1 | 743.17 ± 0.16 | – | 0.522 ± 0.084
333.15 K, x1 = 0.1012 | 664.46 ± 0.19 | – | 0.378 ± 0.061
333.15 K, x1 = 0.2003 | 670.92 ± 0.19 | – | 0.386 ± 0.062
333.15 K, x1 = 0.3001 | 677.66 ± 0.19 | – | 0.395 ± 0.063
333.15 K, x1 = 0.4019 | 684.72 ± 0.18 | – | 0.402 ± 0.064
333.15 K, x1 = 0.5008 | 692.07 ± 0.18 | – | 0.411 ± 0.066
333.15 K, x1 = 0.6 | 699.74 ± 0.17 | – | 0.421 ± 0.068
333.15 K, x1 = 0.6998 | 707.79 ± 0.17 | – | 0.433 ± 0.069
333.15 K, x1 = 0.8 | 716.25 ± 0.17 | – | 0.445 ± 0.071
333.15 K, x1 = 0.9 | 725.03 ± 0.16 | – | 0.46 ± 0.074
333.15 K, x1 = 1 | 734.29 ± 0.16 | – | 0.476 ± 0.076
343.15 K, x1 = 0.1012 | 655.69 ± 0.2 | – | 0.355 ± 0.057
343.15 K, x1 = 0.2003 | 662.12 ± 0.19 | – | 0.361 ± 0.058
343.15 K, x1 = 0.3001 | 668.84 ± 0.19 | – | 0.368 ± 0.059
343.15 K, x1 = 0.4019 | 675.87 ± 0.18 | – | 0.375 ± 0.06
343.15 K, x1 = 0.5008 | 683.23 ± 0.18 | – | 0.383 ± 0.061
343.15 K, x1 = 0.6 | 690.9 ± 0.18 | – | 0.391 ± 0.063
343.15 K, x1 = 0.6998 | 698.9 ± 0.17 | – | 0.401 ± 0.064
343.15 K, x1 = 0.8 | 707.33 ± 0.17 | – | 0.411 ± 0.066
343.15 K, x1 = 0.9 | 716.08 ± 0.17 | – | 0.424 ± 0.068
343.15 K, x1 = 1 | 725.31 ± 0.16 | – | 0.439 ± 0.07

Source: the NIST ThermoML archive (doi:10.1021/acs.jced.5b00105)
